Paper doi:10.1101/2024.07.24.604796 (bioRxiv, 2024)

Target: full-length FhlA (Escherichia coli, UniProt P19323)
Assay type: binding
Conditions: 32 uM protein; 10 mM Tris pH 8, 100 mM NaCl, 5 mM MgCl2, on ice; labelled compound

Chain of full-length FhlA (P19323 whole entry): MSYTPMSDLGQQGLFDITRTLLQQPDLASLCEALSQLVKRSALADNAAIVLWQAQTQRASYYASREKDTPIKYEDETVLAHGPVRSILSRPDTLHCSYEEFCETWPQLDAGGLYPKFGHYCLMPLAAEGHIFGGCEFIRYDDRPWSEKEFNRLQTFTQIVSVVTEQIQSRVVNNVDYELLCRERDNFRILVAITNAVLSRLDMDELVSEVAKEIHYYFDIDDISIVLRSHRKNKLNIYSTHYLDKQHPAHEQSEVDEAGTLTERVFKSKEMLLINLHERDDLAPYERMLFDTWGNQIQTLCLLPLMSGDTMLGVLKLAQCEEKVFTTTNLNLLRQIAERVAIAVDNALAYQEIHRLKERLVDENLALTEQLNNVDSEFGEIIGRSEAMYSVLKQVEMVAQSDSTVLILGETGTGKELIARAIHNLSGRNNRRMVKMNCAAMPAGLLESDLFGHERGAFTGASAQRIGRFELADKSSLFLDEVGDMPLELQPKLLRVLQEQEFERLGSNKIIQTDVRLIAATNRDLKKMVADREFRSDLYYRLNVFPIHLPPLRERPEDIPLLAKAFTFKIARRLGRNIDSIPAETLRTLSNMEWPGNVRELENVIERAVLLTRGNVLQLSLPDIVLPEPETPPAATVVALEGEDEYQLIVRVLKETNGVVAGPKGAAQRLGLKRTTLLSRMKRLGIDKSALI

O=CO [formate]
14C-formate DRaCALA: DRaCALA with full-length purified FhlA, and full-length E183K and E363K derivatives produced similar pattern
